Results as given in patent US6747023B1 (Daiichi Pharmaceutical Co., Ltd., priority 1998, dated 2004).
Where a name gives a salt, the structure may show the parent alone. Read-outs that look alike come from different tables or passages of the source.

Columns and labels:
human Factor Xa = human Factor Xa (Homo sapiens, UniProt P00742); assay: Test of oral administration: anti-FXa activity in the plasma; type: in vivo, Wistar male rat; details: rat, one hour after the oral administration of 30 mg/kg
Chain of human Factor Xa (P00742 235-488 limits assumed): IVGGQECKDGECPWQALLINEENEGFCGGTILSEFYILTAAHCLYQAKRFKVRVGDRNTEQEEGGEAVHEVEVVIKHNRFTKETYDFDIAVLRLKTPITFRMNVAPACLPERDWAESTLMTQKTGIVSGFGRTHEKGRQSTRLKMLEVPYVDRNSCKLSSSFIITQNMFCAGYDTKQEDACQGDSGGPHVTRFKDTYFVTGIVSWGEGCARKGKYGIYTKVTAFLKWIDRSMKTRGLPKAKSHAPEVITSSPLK
Chain of human Factor Xa (P00742 41-179 partner limits assumed): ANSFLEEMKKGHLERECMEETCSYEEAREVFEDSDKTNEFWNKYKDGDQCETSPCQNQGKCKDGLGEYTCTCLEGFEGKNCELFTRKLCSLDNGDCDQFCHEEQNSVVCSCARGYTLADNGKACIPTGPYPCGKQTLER
Experimental: (§1) A sample was dissolved or suspended in a 0.5% (w/v) methyl cellulose solution and the resulting solution or suspension was orally administered (10 ml/kg) to a 8 to 11 week-old rat (Wistar male rat (Nippon SLC Co., Ltd.)) which had been fasted overnight. After administration of the sample, the blood to which 1/10 part by weight of 3.13% (w/v) sodium citrate had been added was collected from the cervical vein under anesthesia with halothane. The rat was awakened except during the blood collection. Feeding was re-started 6 hours after the blood collection. From each blood sample, the plasma was separated by centrifugal separation and anti-FXa activity in the blood and prothrombin time extending action were measured.
In a 96-well plate, 5 μl of the plasma was poured in portions, followed by the addition of 55 μl of a 8:1:2 mixture of 100 mM tris.200 mM sodium chloride.0.2% BSA (pH 7.4) buffer, water and 0.1 U/ml human Factor Xa solution (dissolved in and diluted with a measuring buffer) and 40 μl of 750 μM S-2222. After stirring for 10 seconds in a plate mixer, an increase (mOD/min) of the absorbance at 405 nm was measured at room temperature. The inhibitory ratio was calculated as follows:
An inhibitory ratio (%)=(1−OD of sample÷OD of control on average relative to blood-collecting time of sample)×100

[1] = tested on: prothrombin time of the plasma; assay: Test of oral administration: coagulation extending action (prothrombin time); type: in vivo, Wistar male rat; details: rat, oral administration of 30 mg/kg
Experimental: as §1
To 20 μl of the plasma, 40 μl of cynplastin (Organon Teknika/USA) was added and the coagulation time was measured. The ratio of the prothrombin time after the administration of the sample relative to the prothrombin time before the administration of the sample was designated as an index of the coagulation extending action.

human FXa = biological target: T1, human FXa (Homo sapiens, UniProt P00742); assay: Measurement of FXa inhibitory action (IC50); type: biochemical
T1 construct: purchased Cosmobio-ERL HFXa-1011
T1 sequence (P00742 235-488 limits assumed): as the sequence (P00742 235-488 limits assumed) above
T1 sequence (P00742 41-179 partner limits assumed): as the sequence (P00742 41-179 partner limits assumed) above
Experimental: Measurement of FXa Inhibitory Action (IC50)
From the below-described equation, an inhibitory ratio % of each sample was determined.
(§2) Inhibitory ratio (%)=(1−OD of sample÷OD of control)×100

human thrombin = biological target: T2, human thrombin (Homo sapiens, UniProt P00734); assay: Measurement of thrombin inhibitory action (IC50); type: biochemical
T2 construct: carries out limited proteolysis of prothrombin, thereby forming thrombin; purchased Sigma Chemical
Experimental: Measurement of Thrombin Inhibitory Action (IC50)
In a 96-well microtiter plate, 10 μl of a sample solution, 40 μl of a 100 mM tris.200 mM sodium chloride 0.2% BSA (pH: 7.4) buffer and 10 μl of 4 U/ml human thrombin (Sigma Chemical, dissolved in and diluted with a measuring buffer) were poured in portions, followed by the addition of 40 μl of 500 μM S2266 (product of Chromogenix). An increase (mOD/min) in the absorbance at 405 nm was measured at room temperature. From the below-described equation, an inhibitory ratio % of each sample was determined. On a logarithmic probability paper, the final concentration of the sample and inhibitory ratio % were plotted along the abscissa and the ordinate, respectively, whereby a 50% inhibitory concentration (IC50) was found.
as §2

[2] = tested on: tissue thromboplastin-derived DIC; assay: Anti-thrombus effects in a tissue thromboplastin-derived rat DIC model; type: in vivo; details: oral 30 mg/kg, tissue thromboplastin one hour after the sample
Experimental: A rat was anesthetized with halothane. After the collection of the blood (for measurement of the number of platelets, anti-FXa activity and TAT) from its cervical vein by using 1/10 part by weight of 3.13% (w/v) sodium citrate, the sample was administered orally. At an appropriate time after the administration, the rat was intraperitoneally anesthetized ([…]) with Nembutal (50 mg/ml pentobarbital sodium, Abott Laboratories), followed by intravenous drip of 0.2 U/ml of tissue thromboplastin (Thromboplastin C plus, Dade Diagnostics of P. R. Inc.,) from the femoral vein for one minute at a rate of 2.5 to 3.0 ml/kg/min. The blood was collected (for measuring the number of platelets and anti-FXa activity) from the cervical vein 10 minutes after the intravenous drip and the blood was collected (for measuring TAT) from the cervical vein 20 minutes after the blood collection. The number of platelets, anti-FXa activity in the plasma and TAT concentration of each blood sample were measured. The number of the platelets was measured by an automatic cytometer, while the anti-FXa activity in the plasma was measured in a similar manner to that described in Test 4.
For the measurement of TAT (Thrombin-anti Thrombin=complex), EnzygnostR TAT micro kit (Boering Verke) was employed.

[3] = 0.05 U/ml human FXa, substrate S2222, absorbance at 405 nm, room temperature, read-out: Concentration (nM) of the sample at which 50% of Fxa activity is inhibited
[4] = 4 U/ml human thrombin, substrate S2266, absorbance at 405 nm, room temperature, read-out: Concentration (nM) of the sample at which 50% of thrombin activity is inhibited
[5] = same test as Tables 1-6, read-out: FXa 50% inhibitory concentrations

SMILES | IC50 (human FXa; [3]) [nM] | IC50 (human thrombin; [4]) [nM] | further results
CN1Cc2ccc(C(=O)N3CCN(S(=O)(=O)c4cc5cc(Cl)ccc5[nH]4)CC3)cc2C1 (as salt: salt) [Example B-190, 1-[(5-Chloroindol-2-yl)sulfonyl]-4-[(2-methylisoindolin-5-yl)carbonyl]piperazine] |  |  | melting point: 175 to 180 °C (dec.)
Cl.O=C(C1CC=C(c2ccncc2)CC1)N1CCN(S(=O)(=O)c2ccc3cc(Cl)ccc3c2)CC1 (racemic) [Example A-60, 1-[(6-Chloronaphthalen-2-yl)sulfonyl]-4-[[(1RS)-4-(pyridin-4-yl)-3-cyclohexene]carbonyl]piperazine hydrochloride] |  |  | anti-FXa activity in the plasma (human Factor Xa): 70%; extension of the prothrombin time (ratio after/before administration) [1]: 1.18 times
C#Cc1ccc2[nH]c(S(=O)(=O)N3CCN(C(=O)c4ccc(-c5ccncc5)cc4)CC3)cc2c1 [Example A-103, 1-[(5-Ethynylindol-2-yl)sulfonyl]-4-[4-(pyridin-4-yl)benzoyl]piperazine] | 27 | 2220 | 
O=C(c1ncc(-c2ccncc2)cn1)N1CCN(S(=O)(=O)c2cc3cc(Cl)ccc3[nH]2)CC1 [Example A-105, 1-[(5-Chloroindol-2-yl)sulfonyl]-4-[[5-(pyridin-4-yl)pyrimidin-2-yl]carbonyl]piperazine] |  | 19000 | 
O=C(c1ccc(-c2cccc[n+]2[O-])cc1)N1CCN(S(=O)(=O)c2cc3cc(Cl)ccc3[nH]2)CC1 [Example A-109, 2-[4-[[4-[(5-Chloroindol-2-yl)sulfonyl]piperazin-1-yl]carbonyl]phenyl]pyridine N-oxide] | 6.9 | 1550 | 
O=C(c1ccc(-c2cccc[n+]2[O-])cc1)N1CCN(S(=O)(=O)c2cc3ccc(Cl)cc3s2)CC1 [Example A-117, 2-[4-[[4-[(6-Chlorobenzo[b]thien-2-yl)sulfonyl]piperazin-1-yl]carbonyl]phenyl]pyridine N-oxide] | 10.5 | 4100 | 
O=C(c1ncc(-c2ccncc2)cn1)N1CCN(S(=O)(=O)c2ccc3cc(Cl)ccc3c2)CC1 [Example A-123, 1-[(6-Chloronaphthalen-2-yl)sulfonyl]-4-[[5-(pyridin-4-yl)pyrimidin-2-yl]carbonyl]piperazine] | 23 | 16000 | 
O=C(c1ncc(-c2ccncc2)cn1)N1CCN(S(=O)(=O)c2cc3ccc(Cl)cc3s2)CC1 [Example A-132, 1-[(6-Chlorobenzothiophen-2-yl)sulfonyl]-4-[[5-(pyridin-4-yl)pyrimidin-2-yl]carbonyl]piperazine] | 5.6 | > 100000 | 
O=C(c1ncc(-c2cc[n+]([O-])cc2)cn1)N1CCN(S(=O)(=O)c2cc3ccc(Cl)cc3s2)CC1 [Example A-133, 4-[2-[[4-[(6-Chlorobenzo[b]thien-2-yl)sulfonyl]piperazin-1-yl]carbonyl]pyrimidin-5-yl]pyridine N-oxide] | 10 | 7700 | 
O=C(c1ncc(-c2cc[n+]([O-])cc2)cn1)N1CCN(S(=O)(=O)c2cc3cc(Cl)ccc3[nH]2)CC1 [Example A-134, 4-[2-[[4-[(5-Chloroindol-2-yl)sulfonyl]piperazin-1-yl]carbonyl]pyrimidin-5-yl]pyridine N-oxide] | 4.6 | 10200 | 
O=C(c1cnc(-c2ccncc2)cn1)N1CCN(S(=O)(=O)c2ccc3cc(Cl)ccc3c2)CC1 [Example A-137, 1-[(6-Chloronaphthalen-2-yl)sulfonyl]-4-[[5-(pyridin-4-yl)pyrazin-2-yl]carbonyl]piperazine] | 60 | 4100 | 
O=C(c1cnc(-c2ccncc2)cn1)N1CCN(S(=O)(=O)c2cc3cc(Cl)ccc3[nH]2)CC1 [Example A-138, 1-[(5-Chloroindol-2-yl)sulfonyl]-4-[[5-(pyridin-4-yl)pyrazin-2-yl]carbonyl]piperazine] | 5 | 5900 | 
O=C(c1cnc(-c2cc[n+]([O-])cc2)cn1)N1CCN(S(=O)(=O)c2cc3cc(Cl)ccc3[nH]2)CC1 [Example A-140, 4-[5-[[4-[(5-Chloroindol-2-yl)sulfonyl]piperazin-1-yl]carbonyl]pyrazin-2-yl]pyridine N-oxide] | 6.8 | 1370 | 
C#Cc1ccc2cc(S(=O)(=O)N3CCN(C(=O)c4ncc(-c5ccncc5)cn4)CC3)sc2c1 [Example A-216, 4-[[5-(Pyridin-4-yl)pyrimidin-2-yl]carbonyl]-1-[(6-ethynylbenzo[b]thien-2-yl)sulfonyl]piperazine] | 15 | > 50000 | 
O=C(CC1CN(S(=O)(=O)c2cc3cc(Cl)ccc3[nH]2)CCN1C(=O)c1ncc(-c2cc[n+]([O-])cc2)s1)N1CCCC1 (centres unmarked) [Example A-298, 4-[2-[[4-[(5-Chloroidol-2-yl)sulfonyl]-2-[(pyrrolidin-1-yl)carbonylmethyl]piperazin-1-yl]carbonyl]thiazol-5-yl]pyridine N-oxide] | 0.7 |  | 
CC1Cc2nc(C(=O)N3CCN(S(=O)(=O)c4ccc5cc(Cl)ccc5c4)CC3C(N)=O)sc2CN1.Cl (centres unmarked) [Example B-36, 2-Carbamoyl-4-[(6-chloronaphthalen-2-yl)sulfonyl]-1-[(6-methyl-4,5,6,7-tetrahydrothiazolo[5,4-c]pyridin-2-yl)carbonyl]piperazine hydrochloride] |  |  | anti-FXa activity in the plasma (human Factor Xa): 68%; thrombin time (result in words) [1]: extended the thrombin time; anti-FXa action in the plasma (result in words) [2]: apparent anti-FXa action in the plasma was recognized; decrease in the number of the platelets [2]: suppressed; increase in the TAT concentration [2]: suppressed
CN1CCc2nc(C(=O)N3CCN(S(=O)(=O)c4cc5cc(Cl)ccc5[nH]4)CC3)sc2C1 [Example B-54, hydrochloride] |  |  | IC50 (human FXa; [5]): 5 nM; IC50 (human thrombin; same test as Tables 7-8, read-out: thrombin 50% inhibitory concentration): 1050 nM
C[n+]1ccc2nc(C(=O)N3CCN(S(=O)(=O)c4ccc5cc(Cl)ccc5c4)CC3)sc2c1 [Example B-61] |  |  | IC50 (human FXa; [5]): 30 nM
CN1CCc2nc(C(=O)N3CCN(S(=O)(=O)c4ccc5cc(Cl)ccc5c4)CC3CC(=O)N3CCOCC3)sc2C1 (centres unmarked) [Example B-63, 4-[(6-Chloronaphthalen-2-yl)sulfonyl]-1-[(6-methyl-4,5,6,7-tetrahydrothiazolo[5,4-c]pyridin-2-yl)carbonyl]-2-[[(morpholin-4-yl)carbonyl]methyl]piperazine hydrochloride] |  |  | IC50 (human FXa; [5]): 12.5 nM
CN1CCc2nc(C(=O)N3CCN(S(=O)(=O)c4cc5cc(Cl)ccc5[nH]4)CC3CC(=O)N3CCOCC3)sc2C1 (centres unmarked) [Example B-99, hydrochloride] |  |  | IC50 (human FXa; [5]): 1.7 nM
O=C(c1ccc2c(c1)CNC2)N1CCN(S(=O)(=O)c2cc3cc(Cl)ccc3[nH]2)CC1 [Example B-189, 1-[(5-Chloroindol-2-yl)sulfonyl]-4-[(isoindolin-5-yl)carbonyl]piperazine] |  |  | melting point: 196 to 199 °C (dec.)
